# Source: ChEMBL document CHEMBL4414679, “Discovery of 4,6-pyrimidinediamine derivatives as novel dual EGFR/FGFR inhibitors aimed EGFR/FGFR1-positive NSCLC” (Eur J Med Chem, 2020)
# Experiments:
# [1] = biological target: Fibroblast growth factor receptor 1 (Homo sapiens, UniProt P11362); assay: Inhibition of N-terminal GST-tagged human FGFR1 cytoplasmic domain (398-822 AA) expressed in baculovirus at 10 uM using FAM-labelled peptide as substrate pre-incubated for 10 mins followed by substrate addition by mobility shift assay relative to control
# Chain of Fibroblast growth factor receptor 1 (P11362 22-822 limits assumed): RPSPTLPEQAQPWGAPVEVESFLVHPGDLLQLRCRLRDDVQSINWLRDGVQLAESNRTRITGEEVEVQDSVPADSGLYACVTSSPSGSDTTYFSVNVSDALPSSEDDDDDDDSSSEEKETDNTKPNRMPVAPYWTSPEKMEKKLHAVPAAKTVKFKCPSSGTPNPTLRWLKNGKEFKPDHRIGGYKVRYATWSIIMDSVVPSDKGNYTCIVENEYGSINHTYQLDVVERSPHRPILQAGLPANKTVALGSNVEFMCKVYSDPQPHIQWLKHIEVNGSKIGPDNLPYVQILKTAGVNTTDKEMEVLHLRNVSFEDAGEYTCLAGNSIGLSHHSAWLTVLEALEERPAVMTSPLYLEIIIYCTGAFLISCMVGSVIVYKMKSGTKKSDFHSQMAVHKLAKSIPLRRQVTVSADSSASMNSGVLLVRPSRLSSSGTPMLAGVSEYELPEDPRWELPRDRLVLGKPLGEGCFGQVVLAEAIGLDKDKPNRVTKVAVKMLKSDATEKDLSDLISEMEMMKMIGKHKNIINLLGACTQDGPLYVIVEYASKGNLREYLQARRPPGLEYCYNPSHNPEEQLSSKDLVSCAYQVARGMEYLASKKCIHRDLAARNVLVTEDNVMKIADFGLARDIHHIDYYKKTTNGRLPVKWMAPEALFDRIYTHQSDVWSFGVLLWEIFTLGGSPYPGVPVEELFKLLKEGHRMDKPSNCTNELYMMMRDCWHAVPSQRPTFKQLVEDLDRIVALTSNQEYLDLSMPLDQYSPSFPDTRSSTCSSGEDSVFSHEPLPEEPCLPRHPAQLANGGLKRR
# [2] = biological target: T1, Epidermal growth factor receptor (Homo sapiens, UniProt P00533); assay: Inhibition of N-terminal GST-tagged human EGFR (d746-750AA) expressed in baculovirus at 10 uM using FAM-labelled peptide as substrate pre-incubated for 10 mins followed by substrate addition by mobility shift assay relative to control
# T1 sequence (P00533 whole entry): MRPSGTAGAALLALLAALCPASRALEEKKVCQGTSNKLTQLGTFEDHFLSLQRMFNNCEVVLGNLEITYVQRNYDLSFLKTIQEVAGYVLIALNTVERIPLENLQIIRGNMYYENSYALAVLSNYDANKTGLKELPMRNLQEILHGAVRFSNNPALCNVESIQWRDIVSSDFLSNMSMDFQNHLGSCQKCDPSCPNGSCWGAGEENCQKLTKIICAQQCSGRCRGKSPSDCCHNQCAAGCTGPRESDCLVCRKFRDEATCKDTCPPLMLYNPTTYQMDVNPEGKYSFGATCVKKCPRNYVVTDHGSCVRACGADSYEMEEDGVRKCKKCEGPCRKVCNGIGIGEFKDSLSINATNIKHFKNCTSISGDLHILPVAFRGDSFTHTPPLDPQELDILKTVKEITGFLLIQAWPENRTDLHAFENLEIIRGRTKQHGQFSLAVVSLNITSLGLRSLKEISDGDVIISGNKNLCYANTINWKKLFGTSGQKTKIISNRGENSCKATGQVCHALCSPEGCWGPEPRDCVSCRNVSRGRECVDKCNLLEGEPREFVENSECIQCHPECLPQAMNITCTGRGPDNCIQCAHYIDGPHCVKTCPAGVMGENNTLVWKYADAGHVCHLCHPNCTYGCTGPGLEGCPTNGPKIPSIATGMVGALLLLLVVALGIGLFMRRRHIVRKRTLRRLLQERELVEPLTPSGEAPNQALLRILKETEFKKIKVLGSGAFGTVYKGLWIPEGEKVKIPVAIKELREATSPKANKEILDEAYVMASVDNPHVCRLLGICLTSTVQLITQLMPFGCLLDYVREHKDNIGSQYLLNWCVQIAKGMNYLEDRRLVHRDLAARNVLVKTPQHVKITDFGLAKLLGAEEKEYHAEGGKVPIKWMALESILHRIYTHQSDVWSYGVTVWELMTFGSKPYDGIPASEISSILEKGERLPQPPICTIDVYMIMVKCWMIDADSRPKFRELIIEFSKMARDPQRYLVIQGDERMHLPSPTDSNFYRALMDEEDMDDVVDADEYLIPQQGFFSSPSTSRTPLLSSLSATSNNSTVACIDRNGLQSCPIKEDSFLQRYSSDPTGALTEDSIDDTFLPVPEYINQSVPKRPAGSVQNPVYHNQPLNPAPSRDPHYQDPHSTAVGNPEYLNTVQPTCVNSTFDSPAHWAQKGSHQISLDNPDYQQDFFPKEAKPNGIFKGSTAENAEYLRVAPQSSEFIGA
# HCC827 = assay: Antiproliferative activity against human HCC827 cells assessed as inhibition of cell growth at 10 uM incubated for 48 hrs by MTT assay relative to control; assay type: functional; conditions: HCC827, 48 h
# NCI-H1581 = assay: Antiproliferative activity against human NCI-H1581 cells assessed as inhibition of cell growth at 10 uM incubated for 48 hrs by MTT assay relative to control; assay type: functional; conditions: NCI-H1581, 48 h
# NCI-H520 = assay: Antiproliferative activity against human NCI-H520 cells assessed as inhibition of cell growth at 10 uM incubated for 48 hrs by MTT assay relative to control; assay type: functional; conditions: NCI-H520, 48 h
# NCI-H226 = assay: Antiproliferative activity against human NCI-H226 cells assessed as inhibition of cell growth at 10 uM incubated for 48 hrs by MTT assay relative to control; assay type: functional; conditions: NCI-H226, 48 h
# [3] = biological target: T1, Epidermal growth factor receptor; assay: Inhibition of N-terminal GST-tagged human EGFR cytoplasmic domain (669-1210 AA) expressed in baculovirus at 10 uM using FAM-labelled peptide as substrate pre-incubated for 10 mins followed by substrate addition by mobility shift assay relative to control
# PC-9 = assay: Antiproliferative activity against human PC9 cells assessed as inhibition of cell growth at 10 uM incubated for 48 hrs by MTT assay relative to control; assay type: functional; conditions: PC-9, 48 h
# [4] = test system: Epidermal growth factor receptor (Homo sapiens), P00533 [L858R]; assay: Inhibition of recombinant human EGFR L858R mutant expressed in baculovirus at 10 uM using FAM-labelled peptide as substrate pre-incubated for 10 mins followed by substrate addition by mobility shift assay relative to control
# Chain of Epidermal growth factor receptor (Homo sapiens), P00533 [L858R] (P00533 whole entry L858R): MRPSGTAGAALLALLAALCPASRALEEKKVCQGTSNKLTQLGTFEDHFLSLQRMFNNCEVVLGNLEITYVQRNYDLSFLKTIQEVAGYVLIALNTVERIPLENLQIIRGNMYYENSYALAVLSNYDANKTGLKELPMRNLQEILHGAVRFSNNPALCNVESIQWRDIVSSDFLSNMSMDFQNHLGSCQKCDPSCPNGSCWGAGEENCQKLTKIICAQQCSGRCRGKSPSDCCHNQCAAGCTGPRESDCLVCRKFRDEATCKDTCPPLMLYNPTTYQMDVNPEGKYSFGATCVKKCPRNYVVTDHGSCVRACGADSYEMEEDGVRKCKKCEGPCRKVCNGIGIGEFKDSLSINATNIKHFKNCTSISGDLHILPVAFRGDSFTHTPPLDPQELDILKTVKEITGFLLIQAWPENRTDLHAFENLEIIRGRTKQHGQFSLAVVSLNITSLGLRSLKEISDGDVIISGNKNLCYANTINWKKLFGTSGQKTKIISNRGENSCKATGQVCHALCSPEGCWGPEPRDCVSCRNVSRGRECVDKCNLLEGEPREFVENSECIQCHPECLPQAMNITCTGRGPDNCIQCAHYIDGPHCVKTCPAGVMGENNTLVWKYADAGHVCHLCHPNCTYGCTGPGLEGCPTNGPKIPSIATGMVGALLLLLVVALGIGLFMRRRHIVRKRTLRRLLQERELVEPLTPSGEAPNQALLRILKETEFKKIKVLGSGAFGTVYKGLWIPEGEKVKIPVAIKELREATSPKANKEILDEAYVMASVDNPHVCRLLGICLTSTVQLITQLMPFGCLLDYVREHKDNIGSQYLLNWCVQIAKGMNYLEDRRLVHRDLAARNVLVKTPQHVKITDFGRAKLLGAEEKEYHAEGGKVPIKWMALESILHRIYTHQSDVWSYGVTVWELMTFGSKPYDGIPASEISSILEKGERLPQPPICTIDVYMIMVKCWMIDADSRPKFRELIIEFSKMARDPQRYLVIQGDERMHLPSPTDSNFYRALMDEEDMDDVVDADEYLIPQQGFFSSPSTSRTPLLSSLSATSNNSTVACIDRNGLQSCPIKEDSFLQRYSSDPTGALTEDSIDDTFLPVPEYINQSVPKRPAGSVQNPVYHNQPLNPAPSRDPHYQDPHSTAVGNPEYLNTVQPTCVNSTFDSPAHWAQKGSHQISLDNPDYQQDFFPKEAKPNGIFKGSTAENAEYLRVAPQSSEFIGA
structure (smiles),measurement,setting,value
Cc1ccc(Nc2cc(NC(=O)Nc3c(Cl)cccc3Cl)ncn2)cc1C,inhibition,[1],45.3%
same,inhibition,[2],58.6%
same,inhibition at 10 µM,HCC827,84.3%
same,inhibition at 10 µM,NCI-H1581,73.3%
same,inhibition at 10 µM,NCI-H520,47.5%
same,inhibition at 10 µM,NCI-H226,41.3%
same,inhibition,[3],64.8%
same,inhibition at 10 µM,PC-9,92.1%
same,inhibition,[4],63.8%
CCc1cccc(Nc2cc(NC(=O)Nc3cc(OC)cc(OC)c3)ncn2)c1,inhibition,[1],1.1%
same,inhibition,[2],26%
same,inhibition at 10 µM,HCC827,52.6%
same,inhibition at 10 µM,NCI-H1581,27.7%
same,inhibition at 10 µM,NCI-H520,23%
same,inhibition at 10 µM,NCI-H226,36.7%
same,inhibition,[3],10.1%
same,inhibition at 10 µM,PC-9,82.1%
same,inhibition,[4],41%
COc1cc(NC(=O)Nc2cc(Nc3cccc(C(C)(C)C)c3)ncn2)cc(OC)c1,inhibition,[1],5.2%
same,inhibition,[2],10.4%
same,inhibition at 10 µM,HCC827,48.7%
same,inhibition at 10 µM,NCI-H1581,35%
same,inhibition at 10 µM,NCI-H520,13.1%
same,inhibition at 10 µM,NCI-H226,40%
same,inhibition,[3],17.1%
same,inhibition at 10 µM,PC-9,68%
same,inhibition,[4],29.3%
COc1cc(NC(=O)Nc2cc(Nc3ccc(Br)cc3OC)ncn2)cc(OC)c1,inhibition,[1],-0.7%
same,inhibition,[2],17.9%
same,inhibition at 10 µM,HCC827,57.7%
same,inhibition at 10 µM,NCI-H1581,20.1%
same,inhibition at 10 µM,NCI-H520,36%
same,inhibition at 10 µM,NCI-H226,25.7%
same,inhibition,[3],12.4%
same,inhibition at 10 µM,PC-9,83%
same,inhibition,[4],36.9%
COc1cc(NC(=O)Nc2cc(Nc3ccc(OC)c(I)c3)ncn2)cc(OC)c1,inhibition,[1],10.3%
same,inhibition,[2],43.6%
same,inhibition at 10 µM,HCC827,61.7%
same,inhibition at 10 µM,NCI-H1581,43%
same,inhibition at 10 µM,NCI-H520,46.5%
same,inhibition at 10 µM,NCI-H226,40.1%
same,inhibition,[3],31.4%
same,inhibition at 10 µM,PC-9,47%
same,inhibition,[4],46%
COc1ccc(C(F)(F)F)cc1Nc1cc(NC(=O)Nc2c(Cl)cccc2Cl)ncn1,inhibition,[1],55.4%
same,inhibition,[2],73%
same,inhibition at 10 µM,HCC827,68.7%
same,inhibition at 10 µM,NCI-H1581,69%
same,inhibition at 10 µM,NCI-H520,33%
same,inhibition at 10 µM,NCI-H226,60.1%
same,inhibition,[3],77.5%
same,inhibition at 10 µM,PC-9,89%
same,inhibition,[4],83.1%
COc1cc(NC(=O)Nc2cc(Nc3ccc(C)c(F)c3)ncn2)cc(OC)c1,inhibition,[1],0.1%
same,inhibition,[2],51.5%
same,inhibition at 10 µM,HCC827,72%
same,inhibition at 10 µM,NCI-H1581,38%
same,inhibition at 10 µM,NCI-H520,30.6%
same,inhibition at 10 µM,NCI-H226,39.7%
same,inhibition,[3],31.7%
same,inhibition at 10 µM,PC-9,77.5%
same,inhibition,[4],64.2%
O=C(Nc1cccc(Nc2cc(Nc3cccc(C(F)(F)F)c3)ncn2)c1)C1CC1,inhibition at 10 µM,HCC827,94.7%
same,inhibition at 10 µM,NCI-H1581,26%
same,inhibition at 10 µM,NCI-H520,30%
same,inhibition at 10 µM,NCI-H226,52.7%
same,inhibition at 10 µM,PC-9,90.5%
COc1cc(NC(=O)Nc2cc(Nc3ccc(C)c(C)c3)ncn2)cc(OC)c1,inhibition,[1],21.3%
same,inhibition,[2],43.4%
same,inhibition at 10 µM,HCC827,45.7%
same,inhibition at 10 µM,NCI-H1581,20.1%
same,inhibition at 10 µM,NCI-H520,29.5%
same,inhibition at 10 µM,NCI-H226,45.3%
same,inhibition,[3],54.1%
same,inhibition at 10 µM,PC-9,66%
same,inhibition,[4],39.5%
COc1ccc(Nc2cc(NC(=O)Nc3c(Cl)cccc3Cl)ncn2)cc1C,inhibition,[1],50.4%
same,inhibition,[2],67.4%
same,inhibition at 10 µM,HCC827,63.1%
same,inhibition at 10 µM,NCI-H1581,45%
same,inhibition at 10 µM,NCI-H520,29.1%
same,inhibition at 10 µM,NCI-H226,50%
same,inhibition,[3],47.3%
same,inhibition at 10 µM,PC-9,80.1%
same,inhibition,[4],76.4%
COc1ccc(Br)cc1Nc1cc(NC(=O)Nc2c(Cl)cccc2Cl)ncn1,inhibition,[1],37.8%
same,inhibition,[2],93.5%
same,inhibition at 10 µM,HCC827,53%
same,inhibition at 10 µM,NCI-H1581,53.3%
same,inhibition at 10 µM,NCI-H520,45%
same,inhibition at 10 µM,NCI-H226,33%
same,inhibition,[3],87.3%
same,inhibition at 10 µM,PC-9,69%
same,inhibition,[4],95.9%
COc1cc(NC(=O)Nc2cc(Nc3ccc(C(C)(C)C)cc3)ncn2)cc(OC)c1,inhibition,[1],-0.7%
same,inhibition,[2],-0.2%
same,inhibition at 10 µM,HCC827,32.7%
same,inhibition at 10 µM,NCI-H1581,38.7%
same,inhibition at 10 µM,NCI-H520,17.5%
same,inhibition at 10 µM,NCI-H226,47.7%
same,inhibition,[3],-1.1%
same,inhibition at 10 µM,PC-9,74.1%
same,inhibition,[4],2.7%
COc1cc(NC(=O)Nc2cc(Nc3ccc(OC)c(C)c3)ncn2)cc(OC)c1,inhibition,[1],36.6%
same,inhibition,[2],54.9%
same,inhibition at 10 µM,HCC827,48.3%
same,inhibition at 10 µM,NCI-H1581,19.7%
same,inhibition at 10 µM,NCI-H520,13.5%
same,inhibition at 10 µM,NCI-H226,39.7%
same,inhibition,[3],74.9%
same,inhibition at 10 µM,PC-9,62%
same,inhibition,[4],46.5%
COc1cc(NC(=O)Nc2cc(Nc3cc(F)ccc3OC)ncn2)cc(OC)c1,inhibition,[1],-1.6%
same,inhibition,[2],35.4%
same,inhibition at 10 µM,HCC827,59%
same,inhibition at 10 µM,NCI-H1581,42.1%
same,inhibition at 10 µM,NCI-H520,38%
same,inhibition at 10 µM,NCI-H226,37.7%
same,inhibition,[3],31.1%
same,inhibition at 10 µM,PC-9,59.5%
same,inhibition,[4],54.6%
